Results reported in ChEMBL document CHEMBL5512665, “A CARM1 Inhibitor Potently Suppresses Breast Cancer Both In Vitro and In Vivo” (J Med Chem, 2024).
The source made the active and inactive calls.

Tests used:
MDA-MB-231 = test: Antitumor activity against human MDA-MB-231 cells xenografted in BALB/C mouse assessed as reduction of tumor size at 50 mg/kg,ip administrated daily for 11 days; assay type: functional, organism-based; conditions: time 11.0 day
4T1 [1] = test: Antitumor activity against mouse 4T1 cells implanted in BALB/C mouse assessed as upregulation of IFIT1 gene expression at 50 mg/kg,ip administrated daily for 14 days by RT-qPCR analysis; assay type: functional, organism-based; conditions: time 14.0 day
MCF7 [2] = test: Synergistic antitumor activity against human MCF7 cells xenografted in BALB/C mouse assessed as downregulation of FOXC1 gene expression at 25 mg/kg,ip administrated every other day for 15 days in presence of 5 mg/kg tamoxifen oral administration by RT-qPCR analysis; assay type: functional, organism-based; conditions: time 15.0 day
[3] = Toxicity in BALB/C mouse xenografted with human MCF7 cells assessed as change in kidney morphology at 50 mg/kg,ip administrated every other day for 29 days; assay type: organism-based; conditions: in vivo, 696 h, time 29 day
MCF7 [4] = test: Antitumor activity against human MCF7 cells xenografted in BALB/C mouse assessed as downregulation of N-Myc gene expression at 50 mg/kg,ip administrated every other day for 29 days by RT-qPCR analysis; assay type: functional, organism-based; conditions: time 29.0 day
4T1 [5] = test: Antitumor activity against mouse 4T1 cells implanted in BALB/C mouse assessed as upregulation of CD8A expression at 50 mg/kg,ip administrated daily for 14 days by immunohistochemical staining based analysis; assay type: functional, organism-based; conditions: time 14.0 day
MCF7 [6] = test: Antitumor activity against human MCF7 cells xenografted in BALB/C mouse assessed as upregulation of IFNalpha gene expression at 50 mg/kg,ip administrated every other day for 29 days by RT-qPCR analysis; assay type: functional, organism-based; conditions: time 29.0 day
T47D = test: Antiproliferative activity against human T47D cells assessed as reduction in cell growth incubated for 7 days by celltiter 96 aqueous one solution cell proliferation assay; conditions: 168 h
4T1 [7] = test: Antitumor activity against mouse 4T1 cells implanted in BALB/C mouse assessed as downregulation of TFF1 gene expression at 50 mg/kg,ip administrated daily for 14 days by RT-qPCR analysis; assay type: functional, organism-based; conditions: time 14.0 day
4T1 [8] = test: Antitumor activity against mouse 4T1 cells implanted in BALB/C mouse assessed as inhibition of tumor size at 50 mg/kg,ip administrated daily for 14 days; assay type: functional, organism-based; conditions: time 14.0 day
MCF7 [9] = test: Antitumor activity against human MCF7 cells xenografted in BALB/C mouse assessed as upregulation of CCL5 gene expression at 25 mg/kg,ip administrated every other day for 29 days by RT-qPCR analysis; assay type: functional, organism-based; conditions: time 29.0 day
MCF7 [10] = test: Antitumor activity against human MCF7 cells xenografted in BALB/C mouse assessed as upregulation of CCL5 gene expression at 50 mg/kg,ip administrated every other day for 29 days by RT-qPCR analysis; assay type: functional, organism-based; conditions: time 29.0 day
MCF7 [11] = test: Antitumor activity against human MCF7 cells xenografted in BALB/C mouse assessed as reduction of tumor size at 50 mg/kg,ip administrated every other day for 29 days; assay type: functional, organism-based; conditions: time 29.0 day
MCF7 [12] = test: Synergistic antiproliferative activity against human MCF7 cells assessed as inhibition of cell growth at 2.5 uM incubated for 7 days in presence of fulvestrant by celltiter 96 aqueous one solution cell proliferation assay; assay type: functional, cell-based; conditions: time 7.0 day
MCF7 [13] = test: Antitumor activity against human MCF7 cells xenografted in BALB/C mouse assessed as downregulation of CCND1 gene expression at 25 mg/kg,ip administrated every other day for 29 days by RT-qPCR analysis; assay type: functional, organism-based; conditions: time 29.0 day
[14] = Toxicity in BALB/C mouse xenografted with human MCF7 cells assessed as change in body weight at 50 mg/kg,ip administrated every other day for 29 days; assay type: organism-based; conditions: in vivo, 696 h, time 29 day
[15] = Toxicity in BALB/C mouse xenografted with human MCF7 cells assessed as change in body weight at 25 mg/kg,ip administrated every other day for 29 days; assay type: organism-based; conditions: in vivo, 696 h, time 29 day
[16] = Toxicity in BALB/C mouse xenografted with human MDA-MB-231 cells assessed as change in kidney morphology at 50 mg/kg,ip administrated daily for 11 days; assay type: organism-based; conditions: in vivo, 264 h, time 11 day
MCF7 [17] = test: Potentiation of etoposide induced antiproliferative activity against human MCF7 cells assessed as upregulation of DDX58 gene expression at 2.5 uM in presence of etoposide by RT-qPCR analysis; assay type: functional, cell-based
MCF7 [18] = test: Antitumor activity against human MCF7 cells xenografted in BALB/C mouse assessed as downregulation of PGR gene expression at 25 mg/kg,ip administrated every other day for 29 days by RT-qPCR analysis; assay type: functional, organism-based; conditions: time 29.0 day
4T1 [19] = test: Antitumor activity against mouse 4T1 cells implanted in BALB/C mouse assessed as inhibition of tumor size at 25 mg/kg,ip administrated daily for 14 days; assay type: functional, organism-based; conditions: time 14.0 day
[20] = Toxicity in BALB/C mouse xenografted with human MCF7 cells assessed as change in spleen morphology at 25 mg/kg,ip administrated every other day for 29 days; assay type: organism-based; conditions: in vivo, 696 h, time 29 day
[21] = Toxicity in BALB/C mouse xenografted with human MDA-MB-231 cells assessed as change in lung morphology at 25 mg/kg,ip administrated daily for 11 days; assay type: organism-based; conditions: in vivo, 264 h, time 11 day
[22] = Toxicity in BALB/C mouse implanted with mouse 4T1 cells assessed as change in kidney morphology at 50 mg/kg,ip administrated daily for 14 days; assay type: organism-based; conditions: in vivo, 336 h, time 14 day
MCF7 [23] = test: Synergistic antiproliferative activity against human MCF7 cells assessed as downregulation of C-Myc gene expression at 2.5 uM incubated for 6 hrs in presence of fulvestrant by RT-qPCR analysis; assay type: functional, cell-based
[24] = Toxicity in BALB/C mouse xenografted with human MDA-MB-231 cells assessed as change in spleen morphology at 50 mg/kg,ip administrated daily for 11 days; assay type: organism-based; conditions: in vivo, 264 h, time 11 day
MCF7 [25] = test: Synergistic antitumor activity against human MCF7 cells xenografted in BALB/C mouse assessed as downregulation of C-Myc gene expression at 25 mg/kg,ip administrated every other day for 15 days in presence of 5 mg/kg tamoxifen oral administration by RT-qPCR analysis; assay type: functional, organism-based; conditions: time 15.0 day
MCF7 [26] = test: Synergistic antitumor activity against human MCF7 cells xenografted in BALB/C mouse assessed as downregulation of TFF1 gene expression at 25 mg/kg,ip administrated every other day for 15 days in presence of 5 mg/kg tamoxifen oral administration by RT-qPCR analysis; assay type: functional, organism-based; conditions: time 15.0 day
MCF7 [27] = test: Potentiation of etoposide induced antiproliferative activity against human MCF7 cells assessed as inhibition of colony formation at 2.5 uM incubated for 10 days in presence of etoposide by crystal violet staining based analysis; assay type: functional, cell-based; conditions: time 10.0 day
MCF7 [28] = test: Synergistic antiproliferative activity against human MCF7 cells assessed as downregulation of C-Myc gene expression at 2.5 uM incubated for 6 hrs in presence of tamoxifen by RT-qPCR analysis; assay type: functional, cell-based
4T1 [29] = test: Potentiation of etoposide induced antitumor activity against mouse 4T1 cells implanted in BALB/C mouse assessed as reduction in tumor size at 25 mg/kg,ip administrated daily for 12 days in presence of 8 mg/kg etoposide administration; assay type: functional, organism-based; conditions: time 12.0 day
[30] = Toxicity in BALB/C mouse implanted with mouse 4T1 cells assessed as change in kidney morphology at 25 mg/kg,ip administrated daily for 14 days; assay type: organism-based; conditions: in vivo, 336 h, time 14 day
4T1 [31] = test: Potentiation of etoposide induced antiproliferative activity against mouse 4T1 cells assessed as inhibition of colony formation at 2.5 uM incubated for 10 days in presence of etoposide by crystal violet staining based analysis; assay type: functional, cell-based; conditions: time 10.0 day

Cc1ccc(-c2nc(N3CCN(CCN(C)C)CC3)ncc2-c2ccoc2)cc1.Cl.Cl
active: Activity (MDA-MB-231) | Activity (4T1 [1]) | Activity (MCF7 [2]) | Activity (MCF7 [4]) | Activity (4T1 [5]) | Activity (MCF7 [6]) | Activity (4T1 [7]) | Activity (4T1 [8]) | Activity (MCF7 [9]) | Activity (MCF7 [10]) | Activity (MCF7 [11]) | Activity (MCF7 [12]) | Activity (MCF7 [13]) | Activity (MCF7 [17]) | Activity (MCF7 [18]) | Activity (4T1 [19]) | Activity (MCF7 [23]) | Activity (MCF7 [25]) | Activity (MCF7 [26]) | Activity (MCF7 [27]) | Activity (MCF7 [28]) | Activity (4T1 [29]) | Activity (4T1 [31])
Non-Toxic: Activity [3] | Activity [14] | Activity [15] | Activity [16] | Activity [20] | Activity [21] | Activity [22] | Activity [24] | Activity [30]
4.74 µM: EC50 (T47D)
